Laboratory results reported in US20220098197A1, “SALTS OF HETEROCYCLIC COMPOUND AND USE THEREOF” (priority 2019, published 2022).

Tests used:
CS-induced ALI mice = test: CS-induced lung injury model: inflammatory cells counting in BALF; type: in vivo, Balb/c mice; conditions: intragastric before CS exposure, 7 days; CT-NA 10 and 30 mg/kg, Dex 1 mg/kg; BALF 24 hrs after last CS; p<0.01
Experimental: Specific pathogen-free (SPF) female Balb/c mice (22-28 g; aged 8 weeks) were purchased from Shanghai SIPPR-BK Experimental Animal Co., Ltd. […] Model preparation: The mice were randomly divided into 5 groups (12 mice in each group), which were the control group (the mice were exposed to fresh air), the saline group (the mice were exposed to cigarette smoke), dexamethasone (Dex) group (1 mg/kg) (the mice were exposed to cigarette smoke), CT-NA 10 mg/kg group and CT-NA 30 mg/kg group (the mice were exposed to cigarette smoke). According to the grouping, the mice were intragastrically administered saline, Dex and CT-NA, respectively. Thereafter, the mice were exposed to fresh air or cigarette smoke generated from 3R4F research-grade cigarettes (containing about 600 mg TPM/m^3 and 29.9 mg nicotine/m^3) in a cuboid plastic box (65×50x×45 cm). Ten cigarettes were burned every day for seven days. […] 24 hrs after the last exposure to the cigarette smoke, the partial pressure of oxygen (PO2) of all mice was measured by the Moor VMS-OXY™ measuring instrument, which was used to measure the oxygenated/deoxygenated hemoglobin concentration and oxygen saturation (percentage) in the microcirculation at the wavelength range of 500 to 650 nm. […] The supernatant was aliquoted and stored at −80° C. until the cytokine or albumin concentration was measured. […]

RAW 264.7 macrophages = test: In vitro cytokines mRNA by RT-PCR, CSE- and PGD2-stimulated macrophages; type: cell-based, mouse; conditions: CT-NA 10 and 100 μM, p<0.01
Experimental: The cigarette smoke generated from 3R4F research grade cigarettes was passed through 50 ml PBS by a vacuum pump. Five cigarettes were used to make smoke that passed 50 ml PBS, and each cigarette was lit for 5 minutes. The control solution was prepared in the absence of cigarettes by using a similar method. After extraction, CSE was stored at −80° C.
RAW 264.7 macrophages were added to two 12-well plates. Thereafter, the medium of the 12-well plate was replaced with serum-free RPMI-1640 medium, and the macrophages were incubated for 10-12 hrs and then exposed to CT-NA (10 and 100 μM) for 1 hour. One hour later, one 12-well plate was treated with CSE (4%) and the other with PGD2 (10 μM) for 24 hrs. After the treatment, the supernatant of the treated cells was collected to measure the protein levels of TNF-α, IL-1β, IL-6, KC and IL-10 extracellularly secreted using ELISA kits according to the method of the instructions. Subsequently, RNA samples from each treated plate were extracted and reverse-transcripted into cDNA with HiScript5xQRTSuperMix, and then subjected to RT-PCR. RT-PCR was performed with the BioRad CFX96 Touch™ Real-Time PCR Detection System (BioRad, USA) using AceQ® qPCR SYBR Green Master Mix. And the threshold cycle numbers were obtained using BioRad CFX Manager Software. The primers used for RT-PCR reaction were shown in Table 1. β-actin was used as an internal control. The RT-PCR reactions were triplicated and the relative expression of target mRNA was normalized by the respective β-actin.

RAW264.7 macrophages = test: RT-PCR analysis, LPS- or PGD2-stimulated RAW264.7; type: cell-based, mouse; conditions: CT-NA 10 and 100 μM, P<0.05 or P<0.01
Experimental: For ELISA and RT-PCR, RAW 264.7 macrophages were acclimated to two 12-well plates at 70-80% confluence. Thereafter, the medium in the 12-well plate was replaced with serum-free RPMI-1640 medium for 10-12 hrs and then exposed to CT-NA (10 and 100 μM) for 1 hour. One hour later, one 12-well plate was treated with LPS (100 ng/ml) for 24 hrs, and the other was treated with PGD2 (10 μM) for 24 hrs. After the treatment, the supernatant of the treated cells was collected to measure the protein levels of TNF-α, IL-1β, IL-6, and KC using ELISA kits according to the method of the instructions. Subsequently, RNA samples from each treated plate were extracted and reverse-transcripted into cDNA with HiScript5xQRTSuperMix, and then subjected to RT-PCR using BioRad CFX96 Touch™ real-time PCR detection system (San Diego, Calif.). Similarly, total RNAs extracted from treated isolated peritoneal macrophages were subjected to analyze the mRNA levels of IL-10, TNF-α, IL-6 and KC. The primers used in the RT-PCR reaction were shown in Table 2. β-actin was used as an internal control. The RT-PCR reactions were triplicated and the relative expression of target mRNA was normalized by the respective β-actin.

CN([C@@H]1CCc2c(CC(=O)[O-])c3cccnc3n2C1)S(=O)(=O)c1ccc(F)cc1.[Na+] [Sodium salt hydrate]
number of total cells, macrophages and neutrophils in BALF (CS-induced ALI mice): significantly reduced | mRNA levels of IL-1β, IL-6, TNF-α and KC, CSE-stimulated (RAW 264.7 macrophages; CSE (4%) 24 hrs): inhibited | CSE-induced inhibition of IL-10, mRNA (RAW 264.7 macrophages; CSE (4%), dose-dependent): reversed | mRNA levels of IL-1β, IL-6, TNF-α and KC, PGD2-stimulated (RAW 264.7 macrophages; PGD2 (10 μM) 24 hrs): inhibited | PGD2-induced inhibition of IL-10, mRNA (RAW 264.7 macrophages; PGD2 (10 μM), dose-dependent): reversed | mRNA expressions of IL-1β, TNF-α, IL-6 and KC, LPS-stimulated (RAW264.7 macrophages; LPS, dose-dependent): reduced | mRNA expressions of IL-1β, TNF-α, IL-6 and KC, PGD2-stimulated (RAW264.7 macrophages; PGD2, dose-dependent): reduced
